Data on 1 molecule can be found in article PMC6934184, “Selective DNA-PKcs inhibition extends the therapeutic index of localized radiotherapy and chemotherapy” (The Journal of Clinical Investigation, 2019).

The target in this assay is T1, ABL2 (Arg) (Homo sapiens, UniProt P42684).
T1 construct: purchased Thermo Fisher Scientific (Life Technologies) SelectScreen
The experiment in a line: SelectScreen Z'LYTE. It counts as biochemical. The method in brief:
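SelectScreen broad panel; activity (Z'LYTE, Adapta) plus binding formats. ATP: Km app for CSF1R Z'LYTE; 10 for CAMK1 Adapta. Readout = % per kinase.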

T1 sequence (P42684 whole entry): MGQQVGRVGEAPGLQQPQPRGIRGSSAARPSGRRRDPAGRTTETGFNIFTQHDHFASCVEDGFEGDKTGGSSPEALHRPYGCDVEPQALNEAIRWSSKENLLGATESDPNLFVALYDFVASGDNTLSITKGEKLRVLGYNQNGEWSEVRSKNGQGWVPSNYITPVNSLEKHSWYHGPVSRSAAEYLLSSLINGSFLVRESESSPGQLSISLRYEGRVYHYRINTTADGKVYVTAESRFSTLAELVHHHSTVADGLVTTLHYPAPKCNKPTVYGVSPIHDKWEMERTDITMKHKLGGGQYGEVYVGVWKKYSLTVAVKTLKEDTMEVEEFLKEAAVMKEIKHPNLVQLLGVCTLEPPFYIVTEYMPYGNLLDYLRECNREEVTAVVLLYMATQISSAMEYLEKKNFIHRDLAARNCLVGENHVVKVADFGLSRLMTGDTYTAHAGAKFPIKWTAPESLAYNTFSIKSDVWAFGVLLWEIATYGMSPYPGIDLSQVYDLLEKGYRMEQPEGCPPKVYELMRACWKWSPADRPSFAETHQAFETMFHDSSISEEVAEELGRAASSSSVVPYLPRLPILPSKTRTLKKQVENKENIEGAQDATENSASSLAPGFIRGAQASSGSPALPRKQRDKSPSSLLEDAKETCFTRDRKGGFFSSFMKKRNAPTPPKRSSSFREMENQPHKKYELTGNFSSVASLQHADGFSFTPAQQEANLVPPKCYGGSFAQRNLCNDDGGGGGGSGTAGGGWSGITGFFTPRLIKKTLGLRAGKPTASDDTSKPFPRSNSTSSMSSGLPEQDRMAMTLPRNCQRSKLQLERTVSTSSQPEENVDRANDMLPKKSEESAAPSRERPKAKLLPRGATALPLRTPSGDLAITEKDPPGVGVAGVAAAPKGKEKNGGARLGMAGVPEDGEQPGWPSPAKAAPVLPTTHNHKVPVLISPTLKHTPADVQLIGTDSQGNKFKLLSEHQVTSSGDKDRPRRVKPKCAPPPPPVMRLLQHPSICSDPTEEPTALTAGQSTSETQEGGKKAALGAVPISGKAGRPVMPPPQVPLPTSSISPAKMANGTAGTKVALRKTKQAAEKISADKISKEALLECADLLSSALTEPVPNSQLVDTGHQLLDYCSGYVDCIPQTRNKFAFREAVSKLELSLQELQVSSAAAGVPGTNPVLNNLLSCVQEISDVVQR

The inhibition is the change of the read-out against control, counted positive when it falls. Consider `CN(C(=O)CN1CCOCC1)c1ccc2sc3c(-c4cccc5c(=O)cc(N6CC7CCC(C6)O7)oc45)cccc3c2c1` [NU5455], for which the inhibition at 1 µM is -10.3%.
